Results reported in the NIST ThermoML archive (doi:10.1016/j.jct.2019.01.025).

Assay: xn = mol fraction of the nth substance listed
Settings: 100 kPa, Liquid, Vibrating tube method

NCCO [2-aminoethan-1-ol] + CCCCO
mass density [kg/m3]
Settings	x1 = 0.1188	x1 = 0.2328	x1 = 0.3421	x1 = 0.4472	x1 = 0.5482	x1 = 0.6454	x1 = 0.739	x1 = 0.8291	x1 = 0.9161	x1 = 1
293.15 K	828.26	846.15	864.71	884.56	904.81	925.84	947.05	969.79	993.15	1016.47
298.15 K	824.33	842.24	860.76	880.66	900.83	921.87	943.04	965.8	989.15	1012.53
303.15 K	820.32	838.27	856.75	876.66	896.78	917.83	938.98	961.75	985.1	1008.47
308.15 K	816.39	834.35	852.81	872.72	892.82	913.86	935	957.78	981.13	1004.49
313.15 K	812.46	830.41	848.84	868.77	888.83	909.88	931	953.79	977.14	1000.5
318.15 K	808.37	826.33	844.74	864.67	884.72	905.76	926.88	949.68	973.04	996.39
323.15 K	804.35	822.32	840.73	860.67	880.7	901.75	922.86	945.68	969.05	992.41

NCCO [2-aminoethan-1-ol] + CCCO
mass density [kg/m3]
Settings	x1 = 0.0986	x1 = 0.1974	x1 = 0.2966	x1 = 0.3961	x1 = 0.496	x1 = 0.5961	x1 = 0.6966	x1 = 0.7974	x1 = 0.8985	x1 = 1
293.15 K	823.05	842.4	862.05	882.56	903.81	924.46	946.99	969.87	992.94	1016.47
298.15 K	818.95	838.27	857.94	878.51	899.73	920.46	942.97	965.86	988.96	1012.53
303.15 K	814.83	834.12	853.8	874.37	895.6	916.36	938.85	961.75	984.88	1008.47
308.15 K	810.75	830.03	849.74	870.31	891.55	912.32	934.79	957.71	980.88	1004.49
313.15 K	806.64	825.91	845.63	866.21	887.47	908.27	930.72	953.68	976.87	1000.5
318.15 K	802.38	821.65	841.39	861.99	883.26	904.08	926.53	949.53	972.75	996.39
323.15 K	798.19	817.46	837.23	857.84	879.14	899.9	922.45	945.49	968.76	992.41

NCCO [2-aminoethan-1-ol] + CCO
mass density [kg/m3]
Settings	x1 = 0.0773	x1 = 0.1586	x1 = 0.2443	x1 = 0.3346	x1 = 0.43	x1 = 0.5308	x1 = 0.6377	x1 = 0.7511	x1 = 0.8716	x1 = 1
293.15 K	810.46	831.93	853.39	876.12	899.09	921.99	945.08	968.64	992.58	1016.47
298.15 K	806.22	827.71	849.2	871.96	894.95	917.9	941.02	964.62	988.58	1012.53
303.15 K	801.86	823.37	844.9	867.69	890.7	913.65	936.83	960.48	984.46	1008.47
308.15 K	797.55	819.07	840.65	863.47	886.5	909.55	932.73	956.42	980.42	1004.49
313.15 K	793.21	814.75	836.38	859.23	882.29	905.4	928.6	952.34	976.38	1000.5
318.15 K	788.71	810.29	831.96	854.85	877.94	901.1	924.34	948.13	972.21	996.39
323.15 K	784.27	805.9	827.62	850.55	873.69	896.9	920.19	944.04	968.17	992.41

CC(C)CO [2-methyl-1-propanol] + NCCO
x2 = 0
Settings	mass density [kg/m3]
293.15 K	801.85
298.15 K	797.99
303.15 K	794.03
308.15 K	790.09
313.15 K	786.12
318.15 K	781.97
323.15 K	777.86

CC(C)(C)O [2-methylpropan-2-ol] + NCCO
x2 = 0
Settings	mass density [kg/m3]
298.15 K	780.61
303.15 K	775.42
308.15 K	770.21
313.15 K	764.92
318.15 K	759.42
323.15 K	753.95

CCCCO [butan-1-ol] + NCCO
x2 = 0
Settings	mass density [kg/m3]
293.15 K	809.77
298.15 K	805.92
303.15 K	802
308.15 K	798.14
313.15 K	794.24
318.15 K	790.2
323.15 K	786.21

CCO [ethanol] + NCCO
x2 = 0
Settings	mass density [kg/m3]
293.15 K	789.4
298.15 K	785.13
303.15 K	780.75
308.15 K	776.41
313.15 K	772.04
318.15 K	767.52
323.15 K	763.04

CCCO [propan-1-ol] + NCCO
x2 = 0
Settings	mass density [kg/m3]
293.15 K	803.77
298.15 K	799.69
303.15 K	795.58
308.15 K	791.52
313.15 K	787.42
318.15 K	783.17
323.15 K	778.96

CC(C)O [propan-2-ol] + NCCO
x2 = 0
Settings	mass density [kg/m3]
293.15 K	785.1
298.15 K	780.91
303.15 K	776.57
308.15 K	772.24
313.15 K	767.82
318.15 K	763.19
323.15 K	758.55
